Measured values published in patent US6391924B1, “Taurine derivatives useable in the treatment of ophthalmic disorders” (priority 1997, dated 2002).

Key:
solubility in water = assay type: physicochemical
Experimental: The all-trans isomer of retinyliden tauret (i.e., all-trans-3,7-dimethyl-9-(2,6,6-trimehyl-1-cyclohexen-1-yl)-2,4,6,8-nonatetraen-1-imido-(N-sulfonic acid) prepared in this example has the following characterization: a) Absorbency Max […]., b) Extinction Coefficient at […] is 40200, c) upon protonation the absorbency Max shifts to 444 um, d) the Extinction Coefficient at 444 um is 40050 e) Melting Point is 115 C., -116° C. and soluability in water is 200 mg/ml.

frog retinas = conditions: in vitro; cited from earlier work

CC1=C(/C=C/C(C)=C/C=C/C(C)=C/C=NCCS(=O)(=O)O)C(C)(C)CCC1 (single isomer, unassigned) [all-trans isomer of retinyliden tauret, all-trans-3,7-dimethyl-9-(2,6,6-trimehyl-1-cyclohexen-1-yl)-2,4,6,8-nonatetraen-1-imido-(N-ethanesulfonic acid)]
soluability in water (solubility in water): 200 mg/mL

CC(C=CC1=C(C)CCCC1(C)C)=CC=CC(C)=CC=NCCS(=O)(=O)O [retinyliden tauret, 3,7-dimethyl-9-(2,6,6-trimehyl-1-cyclohexen-1-yl)-2,4,6,8-nonatetraen-1-imido-(N-ethanesulfonic acid)]
photoprotective effects (frog retinas): some photoprotective effects
